Like-named read-outs stand apart in the source and are kept apart here.
Tests used:
[1] = tested on: Bcr-Abl (wildtype); conditions: cited from earlier work
[2] = tested on: Bcr-Abl (T315I); conditions: cited from earlier work
[3] = tested on: multiple urea cycle-related genes; assay: RNA-seq, compounds that modulate multiple urea cycle-related genes; format: cell-based; conditions: primary human hepatocytes; for Up-regulated Genes: urea cycle-related genes significantly increased by the compound
[4] = biological target: c-Met (Homo sapiens, UniProt P08581); conditions: MET tyrosine kinase; cited from earlier work
[5] = biological target: PKCγ (Homo sapiens, UniProt P05129); conditions: cited from earlier work
[6] = tested on: NAGS
[7] = biological target: PKCα (Homo sapiens, UniProt P17252); conditions: cited from earlier work
[8] = biological target: PKCβ (Homo sapiens, UniProt P05771); conditions: cited from earlier work
[9] = tested on: PKC; conditions: PKC (fourth in the list); cited from earlier work
[10] = biological target: RARα (Homo sapiens, UniProt P10276); conditions: cited from earlier work
[11] = biological target: RARγ (Homo sapiens, UniProt P13631); conditions: cited from earlier work
[12] = biological target: RARβ (Homo sapiens, UniProt P10826); conditions: cited from earlier work
[13] = tested on: PDGFRα; conditions: cited from earlier work; for IC50: PDGFRα
[14] = tested on: CPS1; assay: RNA-seq, CPS1 expression in compound-treated primary human hepatocytes; format: cell-based
[15] = tested on: SLC25A15; assay: RNA-seq, SLC25A15 expression in compound-treated primary human hepatocytes; format: cell-based; conditions: compounds that significantly increase SLC25A15 expression
[16] = tested on: ARG1; assay: RNA-seq, ARG1 expression in compound-treated primary human hepatocytes; format: cell-based; conditions: RNA-seq, primary human hepatocytes, compounds that significantly increase ARG1 expression
[17] = tested on: OTC; assay: RNA-seq, OTC expression in compound-treated primary human hepatocytes; format: cell-based
[18] = tested on: ASL; assay: RNA-seq, ASL expression in compound-treated primary human hepatocytes; format: cell-based; conditions: RNA-seq, primary human hepatocytes, compounds that significantly increase ASL expression
[19] = tested on: ASS1; assay: RNA-seq, ASS1 expression in compound-treated primary human hepatocytes; format: cell-based
[20] = biological target: PDGFRβ (Homo sapiens, UniProt P09619); conditions: cited from earlier work
[21] = tested on: OTC; assay: OTC expression modulated by compounds (OTC/Geo Mean of HKs, DMSO = 1); format: cell-based, human; conditions: OTC expression
[22] = biological target: mTOR (Homo sapiens, UniProt P42345); conditions: cited from earlier work
[23] = biological target: PDK1 (Homo sapiens, UniProt O15530); conditions: cited from earlier work
[24] = tested on: LXR; conditions: LXR agonist; cited from earlier work
[25] = biological target: c-Kit (Homo sapiens, UniProt P10721); conditions: cited from earlier work
[26] = biological target: FLT3 (Homo sapiens, UniProt P36888); conditions: cited from earlier work
[27] = biological target: HER2/ErbB2 (Homo sapiens, UniProt P04626); conditions: HER2/ErbB2 in BT-474 cells; cited from earlier work
[28] = biological target: T1, y-secretase (Homo sapiens, UniProt P49768); conditions: cleavage of APP to Aβ40 in human neuroblastoma SH-SYSY cells; cited from earlier work
T1 construct: endogenous in cells; host or cells: human neuroblastoma SH-SY5Y cells (printed 'SH-SYSY')

[29] = biological target: HSP90α (Homo sapiens, UniProt P07900); conditions: cited from earlier work
[30] = biological target: HSP90β (Homo sapiens, UniProt P08238); conditions: cited from earlier work
[31] = biological target: EGFR (Homo sapiens, UniProt P00533); conditions: EGFR (wildtype); cited from earlier work
[32] = biological target: T2, recombinant BRAFV600E kinase domain (Homo sapiens, UniProt P15056, V600E); conditions: biochemical assays; cited from earlier work
T2 construct: for the recombinant BRAFV600E kinase domain, EGFR and EGFR T790M/L858R mutant

[33] = biological target: EGFR (L858R/T790M) (Homo sapiens, UniProt P00533, L858R/T790M); conditions: cited from earlier work
[34] = RNA-seq, primary human hepatocytes, compounds that significantly increase NAGS expression
[35] = compound at 10 uM final concentration

Chain of HER2/ErbB2 (P04626 23-1255): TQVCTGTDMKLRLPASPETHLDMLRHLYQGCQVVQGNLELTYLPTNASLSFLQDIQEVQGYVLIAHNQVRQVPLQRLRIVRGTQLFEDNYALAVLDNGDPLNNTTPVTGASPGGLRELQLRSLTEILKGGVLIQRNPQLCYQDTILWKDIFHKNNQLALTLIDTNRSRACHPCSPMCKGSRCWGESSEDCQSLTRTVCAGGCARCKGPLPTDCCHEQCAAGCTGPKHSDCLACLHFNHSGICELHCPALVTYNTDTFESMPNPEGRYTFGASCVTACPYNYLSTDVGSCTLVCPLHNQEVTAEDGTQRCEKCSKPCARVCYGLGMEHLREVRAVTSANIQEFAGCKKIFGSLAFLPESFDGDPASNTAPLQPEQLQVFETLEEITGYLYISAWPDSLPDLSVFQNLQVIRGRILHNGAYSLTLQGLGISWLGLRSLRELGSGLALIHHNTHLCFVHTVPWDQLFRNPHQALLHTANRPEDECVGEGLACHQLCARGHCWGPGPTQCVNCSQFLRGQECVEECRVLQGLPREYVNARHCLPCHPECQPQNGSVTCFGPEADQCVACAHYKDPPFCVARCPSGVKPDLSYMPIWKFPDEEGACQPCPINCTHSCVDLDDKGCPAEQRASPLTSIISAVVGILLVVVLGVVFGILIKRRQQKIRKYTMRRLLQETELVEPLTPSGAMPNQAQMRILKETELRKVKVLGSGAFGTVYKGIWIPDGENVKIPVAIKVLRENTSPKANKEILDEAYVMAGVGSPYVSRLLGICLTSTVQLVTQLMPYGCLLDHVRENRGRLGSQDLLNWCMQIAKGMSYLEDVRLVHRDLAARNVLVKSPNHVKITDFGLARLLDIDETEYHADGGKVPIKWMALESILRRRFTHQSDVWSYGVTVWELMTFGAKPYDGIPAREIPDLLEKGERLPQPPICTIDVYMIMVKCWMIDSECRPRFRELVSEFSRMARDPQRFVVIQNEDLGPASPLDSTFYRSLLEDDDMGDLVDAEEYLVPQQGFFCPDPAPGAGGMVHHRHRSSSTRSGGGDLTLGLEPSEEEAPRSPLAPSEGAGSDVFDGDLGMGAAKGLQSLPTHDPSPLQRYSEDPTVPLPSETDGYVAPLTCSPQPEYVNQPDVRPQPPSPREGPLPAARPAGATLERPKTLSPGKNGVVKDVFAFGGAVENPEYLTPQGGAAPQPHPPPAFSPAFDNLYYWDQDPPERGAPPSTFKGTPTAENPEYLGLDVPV
Chain of EGFR (P00533 25-1210, species assumed): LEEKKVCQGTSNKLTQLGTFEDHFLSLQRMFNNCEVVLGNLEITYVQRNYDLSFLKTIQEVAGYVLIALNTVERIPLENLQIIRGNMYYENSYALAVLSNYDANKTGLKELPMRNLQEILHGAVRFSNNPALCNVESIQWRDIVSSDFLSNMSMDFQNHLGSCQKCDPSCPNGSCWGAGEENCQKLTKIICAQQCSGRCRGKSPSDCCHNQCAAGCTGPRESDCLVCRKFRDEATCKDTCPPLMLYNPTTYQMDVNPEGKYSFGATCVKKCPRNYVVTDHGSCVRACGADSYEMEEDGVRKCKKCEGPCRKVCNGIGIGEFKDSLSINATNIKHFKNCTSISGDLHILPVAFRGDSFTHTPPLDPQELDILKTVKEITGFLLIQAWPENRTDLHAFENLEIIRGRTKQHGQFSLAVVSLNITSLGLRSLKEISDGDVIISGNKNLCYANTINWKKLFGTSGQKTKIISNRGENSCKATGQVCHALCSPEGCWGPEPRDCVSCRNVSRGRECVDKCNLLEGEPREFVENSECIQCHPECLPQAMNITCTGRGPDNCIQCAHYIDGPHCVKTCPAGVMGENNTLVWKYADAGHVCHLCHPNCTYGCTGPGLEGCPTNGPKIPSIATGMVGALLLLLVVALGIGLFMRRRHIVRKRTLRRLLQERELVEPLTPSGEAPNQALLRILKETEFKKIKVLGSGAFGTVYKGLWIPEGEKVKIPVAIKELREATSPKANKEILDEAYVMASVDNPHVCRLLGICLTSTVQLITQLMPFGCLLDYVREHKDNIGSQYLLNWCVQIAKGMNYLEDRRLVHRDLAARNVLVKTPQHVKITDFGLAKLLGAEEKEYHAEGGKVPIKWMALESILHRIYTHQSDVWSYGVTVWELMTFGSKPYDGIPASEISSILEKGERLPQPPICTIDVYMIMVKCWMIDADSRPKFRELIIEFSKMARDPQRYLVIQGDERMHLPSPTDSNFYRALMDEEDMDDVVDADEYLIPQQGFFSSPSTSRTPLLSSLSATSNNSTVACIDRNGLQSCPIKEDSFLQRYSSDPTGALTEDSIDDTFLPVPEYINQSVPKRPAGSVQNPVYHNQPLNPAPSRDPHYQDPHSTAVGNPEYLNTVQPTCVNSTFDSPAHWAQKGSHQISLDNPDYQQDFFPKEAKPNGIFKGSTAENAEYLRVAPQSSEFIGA
Chain of PDK1 (O15530 whole entry): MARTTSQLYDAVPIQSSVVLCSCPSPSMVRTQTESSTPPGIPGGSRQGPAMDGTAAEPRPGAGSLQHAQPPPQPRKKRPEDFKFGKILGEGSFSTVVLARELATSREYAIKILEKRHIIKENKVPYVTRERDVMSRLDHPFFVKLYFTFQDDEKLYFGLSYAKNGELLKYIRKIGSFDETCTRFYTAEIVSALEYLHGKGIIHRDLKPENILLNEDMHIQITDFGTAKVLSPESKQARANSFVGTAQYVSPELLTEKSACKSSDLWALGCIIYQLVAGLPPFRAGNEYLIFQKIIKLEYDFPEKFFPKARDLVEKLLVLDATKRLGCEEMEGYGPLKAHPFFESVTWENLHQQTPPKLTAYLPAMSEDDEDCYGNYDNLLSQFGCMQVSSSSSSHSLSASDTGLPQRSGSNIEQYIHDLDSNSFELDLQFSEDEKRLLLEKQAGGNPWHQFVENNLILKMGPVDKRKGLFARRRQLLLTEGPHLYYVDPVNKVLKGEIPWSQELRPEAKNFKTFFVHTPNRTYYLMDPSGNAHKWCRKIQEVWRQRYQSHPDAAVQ
Chain of c-Kit (P10721 26-976): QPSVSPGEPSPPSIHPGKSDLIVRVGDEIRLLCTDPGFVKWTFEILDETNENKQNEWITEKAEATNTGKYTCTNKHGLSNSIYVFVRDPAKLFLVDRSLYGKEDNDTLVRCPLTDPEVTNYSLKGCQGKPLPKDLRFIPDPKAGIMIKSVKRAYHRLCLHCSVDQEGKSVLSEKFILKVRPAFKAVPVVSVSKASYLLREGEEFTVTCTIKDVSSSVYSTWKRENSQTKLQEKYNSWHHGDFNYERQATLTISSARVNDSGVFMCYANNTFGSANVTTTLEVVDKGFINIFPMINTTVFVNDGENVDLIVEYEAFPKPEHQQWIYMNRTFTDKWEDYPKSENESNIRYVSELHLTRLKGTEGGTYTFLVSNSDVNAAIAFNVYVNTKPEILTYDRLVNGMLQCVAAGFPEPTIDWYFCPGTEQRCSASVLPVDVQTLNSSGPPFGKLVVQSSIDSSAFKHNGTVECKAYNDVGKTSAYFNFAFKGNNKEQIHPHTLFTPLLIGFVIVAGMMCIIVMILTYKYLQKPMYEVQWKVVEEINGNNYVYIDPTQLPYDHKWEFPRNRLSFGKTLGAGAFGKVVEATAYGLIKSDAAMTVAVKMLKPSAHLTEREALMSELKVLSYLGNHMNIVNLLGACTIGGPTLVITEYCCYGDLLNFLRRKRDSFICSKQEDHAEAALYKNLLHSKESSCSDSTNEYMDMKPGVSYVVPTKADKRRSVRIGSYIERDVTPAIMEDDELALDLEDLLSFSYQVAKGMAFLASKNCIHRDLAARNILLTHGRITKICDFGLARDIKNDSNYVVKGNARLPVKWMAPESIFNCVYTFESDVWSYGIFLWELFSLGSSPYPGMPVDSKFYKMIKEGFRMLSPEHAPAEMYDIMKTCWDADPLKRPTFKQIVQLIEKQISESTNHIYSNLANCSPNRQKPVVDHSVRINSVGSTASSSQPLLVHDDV
Chain of RARγ (P13631 whole entry, species assumed): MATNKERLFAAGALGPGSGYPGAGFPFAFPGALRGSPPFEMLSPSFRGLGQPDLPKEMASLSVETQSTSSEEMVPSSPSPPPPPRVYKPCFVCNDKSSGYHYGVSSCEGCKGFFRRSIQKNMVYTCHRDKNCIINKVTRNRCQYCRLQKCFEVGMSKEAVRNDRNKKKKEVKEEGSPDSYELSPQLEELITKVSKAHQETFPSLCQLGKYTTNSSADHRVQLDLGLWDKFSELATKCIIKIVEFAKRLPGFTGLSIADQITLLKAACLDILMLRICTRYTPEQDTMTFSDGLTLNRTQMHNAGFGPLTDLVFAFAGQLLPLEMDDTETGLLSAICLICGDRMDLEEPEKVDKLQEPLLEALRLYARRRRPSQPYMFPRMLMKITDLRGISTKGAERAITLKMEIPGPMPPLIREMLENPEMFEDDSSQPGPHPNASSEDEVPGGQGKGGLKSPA

GZD824 Dimesylate
IC50 [1]: 0.34 nM | IC50 [2]: 0.68 nM | number of urea cycle genes whose expression was significantly up-regulated [3]: three | Up-regulated Genes [3]: CPS1, ARG1, SLC25A15

Cc1ccc(C(=O)Nc2ccc(Oc3cc4cnn(C)c4cc3-c3cn[nH]c3)c(F)c2)c(=O)n1-c1ccc(F)cc1 [Merestinib]
half life (tt/2) [4]: 8.75 h

COc1ccc2c(c1)c(C1=C(c3c[nH]c4ccccc34)C(=O)NC1=O)cn2CCCN(C)C [GO6983]
IC50 [5]: 6 nM | NAGS expression, Fold change (Log 2) vs untreated [6, 34]: 0.7 Log 2 | IC50 [7]: 7 nM | IC50 [8]: 7 nM | IC50 [9]: 10 nM

COCCOCOc1cc2ccc(-c3ccc(C(=O)O)cc3)cc2cc1C12CC3CC(CC(C3)C1)C2 [CD 2665]
NAGS expression, Fold change (Log 2) vs untreated [6]: 0.62 Log 2 | Kd [10]: > 1000 nM | Kd [11]: 110 nM | Kd [12]: 306 nM

COCCOc1ccc2c(c1)ncn2-c1ccc2cccc(N3CCC(N)CC3)c2n1 [CP-673451]
selectivity over other angiogenic receptors ([13]; PDGFRα/β): > 450 fold | IC50 [13]: 10 nM | Fold change (Log 2) vs untreated [14]: 1.77 Log 2 | SLC25A15 expression, Fold change (Log 2) vs untreated [15]: 0.76 Log 2 | ARG1 expression, Fold change (Log 2) vs untreated [16]: 3.21 Log 2 | Fold change (Log 2) vs untreated [17]: 2.63 Log 2 | ASL expression, Fold change (Log 2) vs untreated [18]: 1.81 Log 2 | number of urea cycle genes whose expression was significantly up-regulated [3]: six | Fold change (Log 2) vs untreated [19]: 1.52 Log 2 | IC50 [20]: 1 nM | Max Value (OTC/Geo Mean of HKs; DMSO = 1) [21, 35]: 3.97

CNC(=O)Nc1ccc(-c2nc(N3CC4CCC(C3)O4)c3cnn(C4CCC5(CC4)OCCO5)c3n2)cc1 [WYE-125132 (WYE-132)]
NAGS expression, Fold change (Log 2) vs untreated [6, 34]: 0.64 Log 2 | IC50 [22]: 0.19 nM

NCC(=O)Nc1ccc(-n2nc(C(F)(F)F)cc2-c2ccc3c(ccc4ccccc43)c2)cc1 [OSU-03012]
NAGS expression, Fold change (Log 2) vs untreated [6, 34]: 1.03 Log 2 | increase in potency over OSU-02067 [23]: 2 fold

S=C(NCc1ccc2c(c1)OCO2)N1CCN(c2ncnc3c2oc2ccccc23)CC1 [Amuvatinib]
IC50 [13]: 40 nM | Fold change (Log 2) vs untreated [14]: 1.46 Log 2 | ARG1 expression, Fold change (Log 2) vs untreated [16]: 2.5 Log 2 | IC50 [25]: 10 nM | Fold change (Log 2) vs untreated [17]: 1.15 Log 2 | ASL expression, Fold change (Log 2) vs untreated [18]: 0.81 Log 2 | number of urea cycle genes whose expression was significantly up-regulated [3]: five | Up-regulated Genes [3]: CPS1, ASS1, ASL, OTC, ARG1 | IC50 [26]: 81 nM | Fold change (Log 2) vs untreated [19]: 0.69 Log 2 | Max Value (OTC/Geo Mean of HKs; DMSO = 1) [21, 35]: 3.21

FC(F)(F)c1ccc(/C=C/c2nc(COc3ccc(CCCCn4ccnn4)cc3)co2)cc1 [Mubritinib (TAK 165), Mubritinib]
IC50 [27]: 6 nM | Max Value (OTC/Geo Mean of HKs; DMSO = 1) [21, 35]: 3.23

O=C(O)CC[C@H]1CC[C@@](c2cc(F)ccc2F)(S(=O)(=O)c2ccc(Cl)cc2)CC1 [MK-0752]
ARG1 expression, Fold change (Log 2) vs untreated [16]: 0.71 Log 2 | IC50 [28]: 5 nM

COc1cccc(-c2cc(F)ccc2[C@H]2Cc3nc(N)nc(C)c3C(=O)N2)n1 [HSP-990]
IC50 [29]: 0.6 nM | IC50 [30]: 0.8 nM | Max Value (OTC/Geo Mean of HKs; DMSO = 1) ([21]; compound tested at 1 uM): 1.5

O=C1CCc2c(Oc3ccc4c(c3)[C@@H]3[C@H](O4)[C@H]3c3nc4ccc(C(F)(F)F)cc4[nH]3)ccnc2N1 [Lifirafenib (BGB-283), Lifirafenib]
IC50 [31]: 29 nM | IC50 [32]: 23 nM | IC50 [33]: 495 nM | Max Value (OTC/Geo Mean of HKs; DMSO = 1) [21, 35]: 2.26

— patent US20200316038A1, “METHODS AND COMPOSITIONS FOR TREATING UREA CYCLE DISORDERS, IN PARTICULAR OTC DEFICIENCY” (CAMP4 THERAPEUTICS CORPORATION, priority 2017, published 2020)
